Data set [1] relates to CSC-enriched populations from xenografts of parental and ADR-resistant MDA-MB-231 TNBC cells. In words: MTT viability of tumor-derived CSC-enriched cells. Particulars: dose-dependent; FIG. 15C. Format: cell-based, human. As to the method: The CSC-enriched cells were then treated with ADR, CFM-4.16, or a combination of both for noted dose and time. The cell viabilities were determined by MTT-based assay as in FIGS. 3A-3C, and plotted relative to the MTT values for the respective untreated controls. The histogram columns in panels B and C represent means of three and four independent experiments, respectively; bars, S.E. α, αα, β, ββ, ^*,**,#,##p=<0.03 relative to respective cells treated with ADR+CFM-4.16.
The TNBC cells were obtained from tumors derived from parental and drug-resistant cells or from a two-dimensional culture plate with ˜70-80% confluence. The cells were washed twice in 1×PBS and trypsinized following established protocols. […]
It was next clarified whether and to the extent CFM-4.16 was able to interfere with growth of mammospheres derived from parental and drug-resistant TNBC-cells. […] The growing mammosphere cultures were then exposed to CFM-4.16, and the viabilities of untreated and treated cultures were determined by an MTT-based assay. […]

For data set [2], the system named is Src, MET, and STAT3 kinases in TNBC cells. The experiment in a line: Western blot, oncogenic tyrosine kinases. The data set is classed as cell-based.
Description: For protein expression analysis, Western blot (WB) experiments were performed according to the standard procedures. The cells were either untreated or treated with various agents either alone or in combinations as indicated. Following treatment durations, the cells were lysed in cell lysis (10×) buffer (#9803; cell signaling) containing 0.1% of protease and phosphatase inhibitor cocktail (Sigma) for 20 min at 4° C. The lysates were centrifuged at 14,000 rpm at 4° C. for 15-20 min to remove debris. Protein concentrations of whole cell lysates were determined using the Protein Assay Kit. Supernatant proteins, 50-100 μg from each sample, were separated by SDS-polyacrylamide gel electrophoresis (SDS-PAGE) and transferred to polyvinylidene difluoride (PVDF) membrane (Bio-rad, Hercules, Calif.) by standard procedures. […] The antibody-bound proteins were visualized by treatment with the chemiluminescence detection reagent according to manufacturer's instructions, followed by exposure to X-ray film (Denville Scientific Inc.). The same membranes were re-probed with the anti-β-actin or anti-α-tubulin antibody, which was used as an internal control for protein loading.
Data set [3] deals with parental and drug-resistant TNBC and SKBR-3 cells. The experiment in a line: scratch/wound healing cell migration assay. Format: cell-based. Particulars: FIGS. 11B, 11C, 12A, 12B, 13A, 13B. As to the method: The TNBC cells migration in the absence or presence of CFMs was measured by the “scratch/wound healing” assay. Cells were seeded in a 6-well plate (˜10,000 cells/well), and when attached, a scratch was created in the cell monolayer using sterile pipette tip. The cells were then allowed to continue growing in the absence (Control) or presence of noted dose of each of the agents for indicated time periods. The cells were photographed at the beginning and at regular intervals during the treatment period, and the images from control cells were compared with the treated cells to determine the migration of the cells essentially as described before [Liang C C, Park A Y, Guan J L In vitro scratch assay: a convenient and inexpensive method for analysis of cell migration in vitro. Nat Protoc. 2007; 2:329-33]. The photomicrographs of the cells were recorded under different magnifications utilizing Zeiss microscope with attached 35 mm camera.

A short description of data set [4]: pharmacokinetic study of CFM-4.16 NLF and free drug (Study 2). Particulars: rats; 40 mg/kg orally. The data set is classed as in vivo, Sprague Dawley Rats. The protocol:
J. Biomed. Nanotechnol. 2015; 11:1608-1627]. Briefly, rats were fasted overnight prior to the start of experiments and randomly divided into three experimental groups receiving CFM-4.16 FD and CFM-4.16 NLF at 40 mg/kg orally and CFM-4.16 solution (CFM-4.16 sol) at 5 mg/kg by intravenous route. After the drug administration, blood samples (250 μl) were withdrawn from tail veins at 0, 0.25, 0.5, 1, 2, 4, 6, 8, 12 and 24 h, and collected directly into heparinized microvet blood collection tubes and plasma was obtained by centrifugation at 10,000 rpm for 10 min. The plasma samples were stored at −80° C. until needed for analysis. CFM-4.16 was extracted from the plasma by protein precipitation method and extracted samples were dissolved in mobile phase and samples were analyzed by HPLC. Oral bioavailability of CFM-4.16 FD and CFM-4.16 NLF along with their pharmacokinetic parameters such as area under curve (AUC), Cmax, t½, and tmax were estimated using non-compartmental techniques with WinNonlin® 5.0 software (Pharsight Corporation, Mountain View, Calif., USA).

The test system of data set [5] is drug-resistant TNBC cells. In words: MTT viability assay, drug-resistant TNBC sublines (not singled out). Format: cell-based. The note with it: 12 h; FIGS. 4A-4E. As to the method:
Human TNBC MDA-MB-468 and MDA-MB-231, and mouse TNBC 4T1 cells were cultured in the chronic presence (>10 months) of Doxorubicin. The parental, wild-type cells were initially treated with 200 nM Doxorubicin for 2-3 weeks, followed by escalation to 400 nM, 1 μM, and 2 μM doses over a period of 3-4 weeks for each dose till resistance developed and the cells became well adapted to growth in […] of Doxorubicin for their routine culture. In the case of Cisplatin however, the human TNBC MDA-MB-468 and MDA-MB-231 were initially cultured in continuous presence of 1 μM Cisplatin for 3-4 weeks, and the dose was escalated to 1.5 μM and 3 μM over periods of 3-4 weeks for each dose till resistance developed and cells became adapted to routine culture in 3 μM dose. Subsequent, routine maintenance of the resistant cells in the presence of the respective drug was continued and multiple, resistant sublines for each of the TNBC cells were isolated and characterized for their growth inhibitory (GI)50 dose of respective therapeutic by the MTT-based viability assays as below.
(Formazan colour is commonly taken as a measure of viable cells.)

As a reminder, the AUC is concentration integrated over time. Higher therefore signals high exposure. For `O=C1N(Cc2ccccc2Cl)c2ccccc2C12NN=C(c1cccc(Cl)c1)S2` (stereo not shown) [CFM-4.16], the “viabilities of CSC enriched TNBC cells vs untreated” value in data set [1] is “significant loss of viabilities”. Further, the “activation of STAT3” value in data set [2] (ADR as well as Cisplatin-resistant human TNBC cells, FIGS. 7A and 8C) is “robustly attenuated”. Further, the “activation and/or expression of MET and Src tyrosine kinases” value in data set [2] (parental and drug-resistant human and murine TNBC cells) is “reduced activation and/or expression”. The “growth of cells in the areas of wound caused by a scratch” value in data set [3] was “prevented”. In addition, in data set [4], the exposure (AUC) worked out at 21070 ± 4200 ng·h/mL and the “plasma Cmax concentration” value was 1190 ± 35 ng/mL. Moreover, the “growth of ADR or Cisplatin-resistant TNBC sublines” value in data set [5] is given as “effectively inhibited growth”.

These data come from patent US10220025B1, “Self-emulsifying formulation of CARP-1 functional mimetics” (Florida A&M University, priority 2016, dated 2019).
